Experimental data taken from ChEMBL document CHEMBL1201862, “PubChem BioAssay data set” (2004).
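Test compounds were applied to cells in 96-well plates for 48 hours at 5 doses. GI50 = concentration required for 50% inhibition of growth.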 Active and inactive are the calls of the source. Cut-off read from the data, not from the text of the source: active = GI50 up to about 1.1 µM and inactive = higher.

Experiments:
Assay in all cases: NCI-60 cell line screen, 48 h
A498 = tested on: A498
ACHN = tested on: ACHN
COLO 205 = tested on: COLO 205
DMS-273 = tested on: DMS-273
HCC 2998 = tested on: HCC 2998
HOP-62 = tested on: HOP-62
HOP-92 = tested on: HOP-92
KM12 = tested on: KM12
M14 = tested on: M14
NCI-H23 = tested on: NCI-H23
SK-OV-3 = tested on: SK-OV-3
SNB-19 = tested on: SNB-19
U-251 = tested on: U-251
UO-31 = tested on: UO-31
NCI-H522 = tested on: NCI-H522
RPMI-8226 = tested on: RPMI-8226
DU-145 = tested on: DU-145
MDA-MB-231 = tested on: MDA-MB-231
MDA-MB-435 = tested on: MDA-MB-435
PC-3 = tested on: PC-3

Measured: GI50

Cc1ccc(NS(=O)(=O)c2cc(C(C)(C)C)ccc2OCCOCCOCCOc2ccc(C(C)(C)C)cc2S(=O)(=O)Nc2ccc(C)cc2)cc1
inactive: A498 > 100 µM | ACHN > 100 µM | COLO 205 > 100 µM | DMS-273 > 100 µM | HCC 2998 > 100 µM | HOP-62 > 100 µM | HOP-92 > 100 µM | KM12 > 100 µM | M14 > 100 µM | NCI-H23 > 100 µM | SK-OV-3 > 100 µM | SNB-19 > 100 µM | U-251 > 100 µM | UO-31 > 100 µM

CCCCCCCCCCCC(=O)OCC1OC(n2cc(F)c(=O)[nH]c2=O)C(N)C(O)C1O (centres undefined)
inactive: A498 > 100 µM | ACHN > 100 µM | COLO 205 60.3 µM | DMS-273 > 100 µM | HCC 2998 > 100 µM | HOP-62 > 100 µM | HOP-92 > 100 µM | KM12 77.4 µM | M14 > 100 µM | NCI-H23 84.7 µM | NCI-H522 75.3 µM | RPMI-8226 > 100 µM | SK-OV-3 > 100 µM | SNB-19 57.9 µM | U-251 79.1 µM | UO-31 > 100 µM

Nc1ncnc2c1ncn2CC(O)CO (centres undefined)
inactive: A498 > 100 µM | COLO 205 > 100 µM | DMS-273 > 100 µM | HCC 2998 86.7 µM | HOP-92 > 100 µM | KM12 > 100 µM | M14 > 100 µM | NCI-H23 > 100 µM | NCI-H522 > 100 µM | RPMI-8226 > 100 µM | SK-OV-3 > 100 µM | SNB-19 > 100 µM | UO-31 > 100 µM

COc1ccc2c([nH]c3c(O)c(-c4c(C)cc5c([nH]c6c(CC=C(C)C)c(OC)ccc65)c4O)c(C)cc32)c1CC=C(C)C [BISMURRAYAFOLINE B]
inactive: A498 > 100 µM | ACHN > 100 µM | COLO 205 > 100 µM | DMS-273 > 100 µM | HCC 2998 > 100 µM | HOP-62 > 100 µM | HOP-92 > 100 µM | KM12 > 100 µM | M14 > 100 µM | NCI-H23 > 100 µM | NCI-H522 > 100 µM | RPMI-8226 > 100 µM | SK-OV-3 > 100 µM | SNB-19 > 100 µM | U-251 > 100 µM | UO-31 > 100 µM

NC(=O)N/N=C(\C(=O)C(=O)Nc1ccc(Cl)c(C(F)(F)F)c1)c1nc2ccc(C(=O)c3ccccc3)cc2nc1O
inactive: A498 36.9 µM | ACHN 82.4 µM | COLO 205 > 100 µM | DMS-273 > 100 µM | HCC 2998 > 100 µM | HOP-92 7.36 µM | KM12 77.6 µM | M14 > 100 µM | NCI-H23 97.9 µM | NCI-H522 46.6 µM | RPMI-8226 > 100 µM | SK-OV-3 85.7 µM | SNB-19 > 100 µM | U-251 > 100 µM | UO-31 31.6 µM

C=C(CCCCCCCCC)CC(=O)SCCNC(=O)CCNC(=O)C(O)C(C)(C)COP(=O)(O)OP(=O)(O)OCC1OC(n2cnc3c(N)ncnc32)C(O)C1OP(=O)(O)O (centres undefined)
inactive: A498 > 100 µM | ACHN > 100 µM | COLO 205 > 100 µM | DMS-273 21 µM | DU-145 > 100 µM | HCC 2998 52.8 µM | HOP-62 40.9 µM | HOP-92 75.5 µM | KM12 52.6 µM | M14 25.5 µM | MDA-MB-231 > 77.8 µM | MDA-MB-435 26.6 µM | NCI-H23 > 100 µM | NCI-H522 11.8 µM | PC-3 56.4 µM | RPMI-8226 23.8 µM | SK-OV-3 > 100 µM | SNB-19 > 71.6 µM | U-251 49.9 µM | UO-31 99.1 µM

CC1CN(C(=O)CN2CCC(CCCCN(C)C)CC2)c2ccccc2NC1=O (centres undefined)
inactive: A498 > 100 µM | ACHN > 100 µM | COLO 205 > 100 µM | DMS-273 > 100 µM | HCC 2998 > 100 µM | HOP-62 > 100 µM | HOP-92 > 100 µM | M14 > 100 µM | NCI-H23 > 100 µM | RPMI-8226 > 100 µM | SK-OV-3 > 100 µM | SNB-19 > 100 µM | U-251 > 100 µM | UO-31 > 100 µM

CC1CC(c2ccc([N+](=O)[O-])cc2)=Nc2ccccc2S1 (centres undefined)
inactive: A498 19 µM | ACHN 19.7 µM | COLO 205 24 µM | DMS-273 20.2 µM | HCC 2998 19.1 µM | HOP-62 44.9 µM | HOP-92 29 µM | KM12 12.6 µM | M14 14.2 µM | NCI-H23 15.8 µM | NCI-H522 20.3 µM | RPMI-8226 2.3 µM | SK-OV-3 17.1 µM | SNB-19 16.7 µM | U-251 15.2 µM | UO-31 11.8 µM
